In PMC2989597 (Current topics in medicinal chemistry, 2009):

Experiments:
[1] = molecular target: AmpC β-lactamase; details: cited from earlier work
[2] = Plasma protein binding; format: in vitro ADME; details: low free fraction
[3] = tested on: α-galactosidase; details: cited from earlier work
[4] = tested on: Cyp; assay: Cyp inhibition; format: in vitro ADME
[5] = Aqueous solubility; format: physicochemical
[6] = tested on: β-N-acetylflucosaminidase; details: cited from earlier work
[7] = tested on: α-glucosidase; details: cited from earlier work
[8] = tested on: Caco-2; assay: Caco-2 permeability; format: in vitro ADME
[9] = Microsomal stability; format: in vitro ADME; details: rat
[10] = tested on: N370S mutant GC; details: N370S mutant GC fibroblasts, 40 μM; cited from earlier work
[11] = molecular target: glucocerebrosidase (GC); details: native GC; cited from earlier work
[12] = tested on: Thyroid stimulating hormone receptor (TSHR); details: AID 926; cited from earlier work
[13] = tested on: TSHR; details: cited from earlier work
[14] = tested on: thyroperoxidase mRNA expression; details: human thyrocytes, 10 μM and 30 μM; cited from earlier work
[15] = tested on: TSHR; details: sera from 4 Graves' disease patients, cAMP accumulation; cited from earlier work
[16] = tested on: LHR; details: cited from earlier work
[17] = tested on: S. mansoni TGR; details: single 10 μM exposure to 15 nM S. mansoni TGR, NADPH; cited from earlier work
[18] = tested on: S. mansoni adult worms; details: 100 μM carboxy-PTIO (NO scavenger); cited from earlier work

CC(C)[C@H](NC(=O)OC(C)(C)C)c1nnc(S(=O)(=O)Cc2c(F)cccc2Cl)o1 [NCGC00067197, (S)-tert-butyl 1-(5-(2-chloro-6-fluorobenzylsulfonyl)-1,3,4-oxadiazol-2-yl)-2-methylpropylcarbamate]
IC50 [1]: 16 nM

Cc1cc(N2CCOCC2)nc2ccc(NC(=O)C3CCCCC3)cc12 [NCGC00092410, N-(4-methyl-2-morpholinoquinolin-6-yl)cyclohexanecarboxamide]
plasma protein binding [2]: high level | inhibitory capacity for α-galactosidase [3]: no inhibitory capacity | Cyp inhibition [4]: no relevant Cyp inhibition | aqueous solubility [5]: acceptable | inhibitory capacity for β-N-acetylflucosaminidase [6]: no inhibitory capacity | inhibitory capacity for α-glucosidase [7]: no inhibitory capacity | Caco-2 permeability [8]: acceptable | microsomal stability [9]: acceptable | co-localization of mutant GC to the lysosome [10]: co-localization of this mutant form of GC to the lysosome | Ki [11]: 21 nM

O=C(O)c1ccc2c(c1)C(=O)N([C@H](Cc1cccc3ccccc13)C(=O)O)C2=O [NCGC00161790, (R)-2-(1-carboxy-2-(naphthalen-1-yl)ethyl)-1,3-dioxoisoindoline-5-carboxylic acid]
Ki [1]: 5000 nM

COc1ccc(C2Nc3ccccc3C(=O)N2Cc2ccccc2)cc1COc1ccc(NC(C)=O)cc1 (centres unmarked) [NCGC00161876, N-(4-(5-(3-benzyl-4-oxo-1,2,3,4-tetrahydroquinazolin-2-yl)-2-methoxybenzyloxy)phenyl)acetamide]
TSHR agonism in qHTS [12]: agonists

COC/C=C/c1ccc(-c2nc(SC)nc3sc(C(=O)NC(C)(C)C)c(N)c23)cc1 [NCGC00166332]
TSHR antagonism [13]: antagonist | blocking thyroperoxidase mRNA expression [14]: capable of blocking | blocking the activity of thyroid-stimulating antibodies [15]: capable of blocking

COc1cccc(-c2nc(SC)nc3sc(C(=O)NC(C)(C)C)c(N)c23)c1 [Org 41841, reference compound]
response at TSHR ([13]; lower potency relative to LHR): agonistic response | LHR agonism [16]: highly potent

N#Cc1c(-c2ccccc2)no[n+]1[O-] [furoxan, 3-cyano-4-phenyl-1,2,5-oxadiazole 2-oxide]
NO release [17]: appreciable amount of NO | worm killing potential in the presence of carboxy-PTIO [18]: largely mitigated
